These are literature values, as cited in patent publication US10874098B2, “Organ preservation composition” (TX Innovations B.V., priority 2015, dated 2020).

Series [1] has as its system lung ischemia-reperfusion injury after lung transplantation. The conditions noted are these: intraperitoneal treatment of the donor animal three days before harvesting.

Turning to `C[C@H](N)C(=O)O` [L-alanine], the “stability in aqueous solutions” value is on record as “spontaneously degrade”.
As to `NCCS(=O)(=O)O` [taurine], in series [1], the “preservation of the transplanted lung” value was “preservation of the transplanted lung in respect to histopathological and biochemical findings”.
Regarding L-alanine-L-glutamine, the “stability in aqueous solutions” value is “more stable in aqueous solutions and does not spontaneously degrade”.
